Drawing on patent US12559495B2 (Agency for Science, Technology and Research, priority 2013, dated 2026), this text covers IC50 for 24 compounds.

Some results are limits rather than exact numbers.

The assay concerns HEK293-STF3A cells. As to the kind of experiment: STF3A assay (luciferase reporter). The assay is classed as cell-based. As to conditions: Homo sapiens, 24 h, 1 day of treatment. Here is the method: HEK293-STF cell line was modified from Human embryonic kidney cell line HEK293 transfected with the STF reporter. HEK293-STF3A cell line was further modified from HEK293-STF cell line to express Wnt3A. This cell line was used to identify compounds that regulate either early or late signalling components of the Wnt pathway. L-Wnt3A (ATCC, #CRL-2647) cell line was used for providing Wnt3A conditioned media. The three cell lines were grown in DMEM (Dulbecco's Modified Eagle Medium) with 10% FBS (fetal bovine serum) incubated in 37° C. with 5% CO2. 2×10^4 HEK293-STF3A cells in 75 μl culture media were seeded in each well of white 96 well plates (Greiner #655098) and incubated overnight at 37° C. 25 μl serially diluted compound was added to the cells to give final concentration of 50 μM to 1.5 nM. After 1 day of treatment, 100 μl of Steady-Glo® Luciferase Assay reagent (#E2520, Promega) was added to each well and incubated for 10 minutes at room temperature. Luminescence was measured using Tecan Safire2® plate reader.
A general note: Reporter assays use an easily measured gene product as a stand-in for the process of interest.
As to `COc1cc(NC(=O)Cn2cnc3c2c(=O)n(C)c(=O)n3C)ccc1-c1ccccc1` [Compound 14, 2-(1,3-dimethyl-2,6-dioxo-2,3-dihydro-1H-purin-7(6H)-yl)-N-(2-methoxybiphenyl-4-yl)acetamide], the IC50 (commonly the midpoint of a concentration-inhibition curve) was < 1000 nM.

Regarding `Cn1c(=O)c2c(ncn2CC(=O)Nc2ccc(N3CCN(C(=O)c4ccc(Cl)cc4)CC3)cn2)n(C)c1=O` [Compound 49, N-(5-(4-(4-chlorobenzoyl)piperazin-1-yl)pyridin-2-yl)-2-(1,3-dimethyl-2,6-dioxo-2,3-dihydro-1H-purin-7(6H)-yl)acetamide], the IC50 is < 1000 nM.

Take `CC(C(=O)Nc1ccc(-c2ccccc2)cc1)n1cnc2c1c(=O)n(C)c(=O)n2C` (stereo not drawn) [Compound 62, N-(biphenyl-4-yl)-2-(1,3-dimethyl-2,6-dioxo-2,3-dihydro-1H-purin-7(6H)-yl)propanamide]: the IC50 was < 100 nM.

With `C[C@@H]1CNCCN1c1ccc(NC(=O)Cn2cnc3c2c(=O)n(C)c(=O)n3C)cc1` [Compound 44, (R)-2-(1,3-dimethyl-2,6-dioxo-2,3-dihydro-1H-purin-7(6H)-yl)-N-(4-(2-methylpiperazin-1-yl)phenyl)acetamide], the IC50 was > 10000 nM.

Turning to `Cc1cccc(-c2ccc(NC(=O)Cn3cnc4c3c(=O)n(C)c(=O)n4C)cc2)c1` [Compound 29, 2-(1,3-dimethyl-2,6-dioxo-2,3-dihydro-1H-purin-7(6H)-yl)-N-(3′-methylbiphenyl-4-yl)acetamide], the IC50 is < 100 nM.

For the compound `C[C@@H](C(=O)Nc1ccc(-c2ccsc2)cc1)n1cnc2c1c(=O)n(C)c(=O)n2C` [Compound 59, (S)-2-(1,3-dimethyl-2,6-dioxo-2,3-dihydro-1H-purin-7(6H)-yl)-N-(4-(thiophen-3-yl)phenyl)propanamide], the IC50 is < 100 nM.

Regarding `Cn1c(=O)c2c(ncn2CC(=O)Nc2ccc(-c3ccccn3)cn2)n(C)c1=O` [Compound 9, N-(2,3′-bipyridin-6′-yl)-2-(1,3-dimethyl-2,6-dioxo-2,3-dihydro-1H-purin-7(6H)-yl)acetamide], the IC50 was < 100 nM.

As for `Cn1c(=O)c2c(ncn2CC(=O)Nc2ccc(-n3ccnc3)cc2)n(C)c1=O` [Compound 4, N-(4-(1H-imidazol-1-yl)phenyl)-2-(1,3-dimethyl-2,6-dioxo-2,3-dihydro-1H-purin-7(6H)-yl)acetamide], the half-maximal inhibitory concentration (IC50) is < 1000 nM.

Turning to `Cn1c(=O)c2c(ncn2CC(=O)Nc2ccc(-c3nccs3)cn2)n(C)c1=O` [Compound 41, 2-(1,3-dimethyl-2,6-dioxo-2,3-dihydro-1H-purin-7(6H)-yl)-N-(5-(thiazol-2-yl)pyridin-2-yl)acetamide], the IC50 is < 100 nM.

Consider `C[C@H]1CN(C(=O)c2ccccc2)CCN1c1ccc(NC(=O)Cn2cnc3c2c(=O)n(C)c(=O)n3C)cc1` [Compound 46, (S)—N-(4-(4-benzoyl-2-methylpiperazin-1-yl)phenyl)-2-(1,3-dimethyl-2,6-dioxo-2,3-dihydro-1H-purin-7(6H)-yl)acetamide], for which the IC50 is < 1000 nM.

Regarding `CN(C(=O)Cn1cnc2c1c(=O)n(C)c(=O)n2C)c1ccc(-c2ccsc2)cc1` [Compound 17, 2-(1,3-dimethyl-2,6-dioxo-2,3-dihydro-1H-purin-7(6H)-yl)-N-methyl-N-(4-(thiophen-3-yl)phenyl)acetamide], the IC50 is > 10000 nM.

Regarding `Cc1nc(-c2ccc(NC(=O)[C@H](C)n3cnc4c3c(=O)n(C)c(=O)n4C)nc2)cs1` [Compound 86, (S)-2-(1,3-dimethyl-2,6-dioxo-2,3-dihydro-1H-purin-7(6H)-yl)-N-(5-(2-methylthiazol-4-yl)pyridin-2-yl)propanamide], the IC50 was < 100 nM.

As to `C[C@@H](C(=O)Nc1ccc(-c2ccccc2)nn1)n1cnc2c1c(=O)n(C)c(=O)n2C` [Compound 79, (S)-2-(1,3-dimethyl-2,6-dioxo-2,3-dihydro-1H-purin-7(6H)-yl)-N-(6-phenylpyridazin-3-yl)propanamide], the IC50 is < 100 nM.

On to `O=C(Cn1cnc2[nH]c(=O)[nH]c(=O)c21)Nc1ccc(-c2ccsc2)cc1` [Compound 71, 2-(2,6-dioxo-2,3-dihydro-1H-purin-7(6H)-yl)-N-(4-(thiophen-3-yl)phenyl) acetamide], for which the IC50 is > 10000 nM.

As to `C[C@H]1CN(C(=O)OC(C)(C)C)CCN1c1ccc(NC(=O)Cn2cnc3c2c(=O)n(C)c(=O)n3C)cc1` [Compound 15, (S)-tert-butyl 4-(4-(2-(1,3-dimethyl-2,6-dioxo-2,3-dihydro-1H-purin-7(6H)-yl)acetamido)phenyl)-3-methylpiperazine-1-carboxylate], the IC50 is < 100 nM.

Turning to `CC(C)C(C(=O)Nc1ccc(-c2ccccc2)cc1)n1cnc2c1c(=O)n(C)c(=O)n2C` (stereo not drawn) [Compound 65, N-(biphenyl-4-yl)-2-(1,3-dimethyl-2,6-dioxo-2,3-dihydro-1H-purin-7(6H)-yl)-3-methylbutanamide], the IC50 is > 10000 nM.

With `Cc1nc(-c2ccc(NC(=O)[C@@H](C)n3cnc4c3c(=O)n(C)c(=O)n4C)nc2)cs1` [Compound 85, (R)-2-(1,3-dimethyl-2,6-dioxo-2,3-dihydro-1H-purin-7(6H)-yl)-N-(5-(2-methylthiazol-4-yl)pyridin-2-yl)propanamide], the IC50 is < 5000 nM.

Take `CN(C)c1nc2c(c(=O)n(C)c(=O)n2C)n1CC(=O)Nc1ccc(-c2ccsc2)cc1` [Compound 73, 2-(8-(dimethylamino)-1,3-dimethyl-2,6-dioxo-2,3-dihydro-1H-purin-7(6H)-yl)-N-(4-(thiophen-3-yl)phenyl)acetamide]: the IC50 was < 100 nM.

Take `Cn1c(=O)c2c(ncn2CC(=O)Nc2ccc(N3CCN(C(=O)c4cccc(F)c4)CC3)cn2)n(C)c1=O` [Compound 51, 2-(1,3-dimethyl-2,6-dioxo-2,3-dihydro-1H-purin-7(6H)-yl)-N-(5-(4-(3-fluorobenzoyl)piperazin-1-yl)pyridin-2-yl)acetamide]: the IC50 is < 1000 nM.

Take `Cn1c(=O)c2c(ncn2CC(=O)Nc2cc(-c3ccccc3)cs2)n(C)c1=O` [Compound 3, 2-(1,3-dimethyl-2,6-dioxo-2,3-dihydro-1H-purin-7(6H)-yl)-N-(4-phenylthiophen-2-yl)acetamide]: the IC50 was < 1000 nM.

For `Cc1nc(-c2ccc(NC(=O)CCn3cnc4c3c(=O)n(C)c(=O)n4C)cc2)cs1` [Compound 92, 3-(1,3-dimethyl-2,6-dioxo-1,2,3,6-tetrahydro-7H-purin-7-yl)-N-(4-(2-methylthiazol-4-yl)phenyl)propanamide], the IC50 was < 1000 nM.

With `COC(=O)c1ccc(-c2ccc(NC(=O)Cn3cnc4c3c(=O)n(C)c(=O)n4C)cc2)cc1` [Compound 38, methyl 4′-(2-(1,3-dimethyl-2,6-dioxo-2,3-dihydro-1H-purin-7(6H)-yl)acetamido)biphenyl-4-carboxylate], the IC50 was < 100 nM.

As for `Cn1c(=O)c2c(ncn2CC(=O)Nc2ccc(N3CCN(C(=O)c4ccc(F)cc4)CC3)cn2)n(C)c1=O` [Compound 52, 2-(1,3-dimethyl-2,6-dioxo-2,3-dihydro-1H-purin-7(6H)-yl)-N-(5-(4-(4-fluorobenzoyl)piperazin-1-yl)pyridin-2-yl)acetamide], the IC50 was < 1000 nM.

For the compound `COc1cccc(-c2ccc(NC(=O)Cn3cnc4c3c(=O)n(C)c(=O)n4C)cc2)c1` [Compound 32, 2-(1,3-dimethyl-2,6-dioxo-2,3-dihydro-1H-purin-7(6H)-yl)-N-(3′-methoxybiphenyl-4-yl)acetamide], the IC50 was < 100 nM.
